Reference: article PMC11277004, “Di- and Triselenoesters—Promising Drug Candidates for the Future Therapy of Triple-Negative Breast Cancer” (International Journal of Molecular Sciences, 2024)

Tests used:
[1] = tested on: MDA-MB-231 triple-negative breast cancer cells; test: DNA biosynthesis assay ([3H]-thymidine incorporation), MDA-MB-231; format: cell-based, human; conditions: Homo sapiens, MDA-MB-231, 24 h, read-out: IC50, DNA biosynthesis
Method: (§1) The study of the antiproliferative properties (intensity of [^3H]-thymidine incorporation into cell DNA) of the tested derivatives against tested cell lines (MCF-7, MDA-MB-231, MCF-10A) was performed after 24 h incubation with varied concentrations of the tested compounds in the medium (0.5–5 µM) in 6-well plates (baseline seeding density: 5 × 10^5 cells/well). After 24 h the medium was removed, the cells were washed with PBS (Corning, Kennebunk, ME, USA), and a fresh medium was added. After that, the cells were treated with 0.5 µCi of tritium-labeled thymidine (specific activity 7 Ci/mmol) by incubating them with this compound for 4 h under the same conditions as the cell culture. In the first step, the medium was removed, and the cell monolayer was washed twice with 1 mL of 0.05 M Tris-HCl buffer pH 7.4 containing 0.11 M NaCl. To denature proteins, the cells were washed twice with 1 mL of 5% trichloroacetic acid (TCA) solution. Finally, cell lysis was performed by adding 1 mL of 0.1 M sodium hydroxide (NaOH) solution containing 1% sodium dodecyl sulfate (SDS) to each well. After five minutes, the obtained cell lysates were transferred to scintillation vials with 2 mL of scintillation fluid added to them beforehand. Radioactivity was measured using the Scintillation Counter 1900 TR, TRI-CARB (Packard, Perkin Elmer, Inc., San Jose, CA, USA). The intensity of DNA biosynthesis in the analyzed cells was expressed in terms of dpm/well. The result of the radioactivity measurement in the control cells (without the addition of tested compounds) was taken as 100%, while the values of cells incubated with the tested compounds were presented as a percentage of the control value.

[2] = tested on: MCF-10A normal human breast epithelial cells; test: MTT cytotoxicity test, MCF-10A; format: cell-based; conditions: Homo sapiens, 24 h incubation, read-out: IC50, cell viability (MTT)
Method: (§2) MCF-7 and MDA-MB-231 human breast cancer cell lines, as well as MCF-10A normal human breast epithelial cells, were acquired from the American Type Culture Collection (ATCC, Manassas, VA, USA). The characteristics of the breast cancer cell lines used in this study are compared in Table 1. MCF-7 and MDA-MB-231 cells were cultured in Dulbecco’s modified Eagle’s medium (Gibco, San Diego, CA, USA), while MCF-10A cells were cultured in the mammary epithelial cell growth medium with the following supplements: BPE, hEGF, insulin, hydrocortisone, GA-1000 (Lonza, Basel, Switzerland). All media were complemented by 10% of fetal bovine serum (FBS) and 1% of the following antibiotics: penicillin and streptomycin (both Gibco, San Diego, CA, USA). The cells were maintained in an incubator that provides the optimal growth conditions for the cell culture: 5% CO2, 37 °C, and humidity in a range of 90–95%. The cells were cultured in 100 mm plates (Sarstedt, Newton, NC, USA). Subsequently, after obtaining a subconfluent cell culture, the cells were detached with 0.05% trypsin with 0.02% EDTA (Gibco, San Diego, CA, USA). […] In this study, cells that obtained 80% confluence were used. The MTT assay was used to determine the cytotoxic effects of the compounds in the study on MCF-7 and MDA-MB-231 breast cancer cells as well as MCF-10A normal human breast epithelial cells based on Carmichael’s method. […] After this time, the medium was removed, and the cell monolayer was washed with warm phosphate-buffered saline (PBS) without calcium and magnesium. In the next step, PBS and MTT solution in PBS (5 mg/mL) were added to each well to obtain a final MTT concentration of 0.5 mg/mL, and then the cells were incubated for 4 h (37 °C temperature, 5% CO2, 90–95% humidity). After the incubation period, the contents of each well were removed, 1 mL of DMSO was added to dissolve the formazan, and then the plate with the added DMSO was mixed for 5–10 min on a microplate shaker (Boeco, Hamburg, Germany). Then, 10 µL of Sorensen’s glycine buffer (a solution of 0.1 M glycine and 0.1 M sodium chloride adjusted to pH 10.5 with 0.1 M sodium hydroxide) was added. The absorbance of the obtained solution was immediately measured at a wavelength of λ = 570 nm using a Thermo Scientific Evolution 201 UV–VIS spectrophotometer (Thermo Fisher Scientific, Waltham, MA, USA). The absorbance result obtained in the control cells (without the addition of the tested compounds) was taken as 100%, while the viability of cells incubated with the tested compounds was presented as a percentage of the control value.

[3] = tested on: MCF-7 breast cancer cells; test: DNA biosynthesis assay ([3H]-thymidine incorporation), MCF-7; format: cell-based, human; conditions: Homo sapiens, MCF7, 24 h, read-out: IC50, DNA biosynthesis
Method: as §1

[4] = tested on: MCF-7, MDA-MB-231 and MCF-10A cells; test: Viability (MTT) and DNA biosynthesis, summary statements over the tested cell lines; format: cell-based, human; conditions: DNA biosynthesis, vs EDAG-1 and EDAG-8
Method: The MTT assay was used to determine the cytotoxic effects of the compounds in the study on MCF-7 and MDA-MB-231 breast cancer cells as well as MCF-10A normal human breast epithelial cells based on Carmichael’s method. All cultured cell lines were treated with varied concentrations of the tested compounds in the medium (0.5–5 µM) and incubated for 24 h in an incubator providing optimal conditions for cell culture growth (37 °C temperature, 5% CO2, and 90–95% humidity) in 6-well plates (baseline seeding density: 5 × 10^5 cells/well). After this time, the medium was removed, and the cell monolayer was washed with warm phosphate-buffered saline (PBS) without calcium and magnesium. In the next step, PBS and MTT solution in PBS (5 mg/mL) were added to each well to obtain a final MTT concentration of 0.5 mg/mL, and then the cells were incubated for 4 h (37 °C temperature, 5% CO2, 90–95% humidity). After the incubation period, the contents of each well were removed, 1 mL of DMSO was added to dissolve the formazan, and then the plate with the added DMSO was mixed for 5–10 min on a microplate shaker (Boeco, Hamburg, Germany). Then, 10 µL of Sorensen’s glycine buffer (a solution of 0.1 M glycine and 0.1 M sodium chloride adjusted to pH 10.5 with 0.1 M sodium hydroxide) was added. The absorbance of the obtained solution was immediately measured at a wavelength of λ = 570 nm using a Thermo Scientific Evolution 201 UV–VIS spectrophotometer (Thermo Fisher Scientific, Waltham, MA, USA). The absorbance result obtained in the control cells (without the addition of the tested compounds) was taken as 100%, while the viability of cells incubated with the tested compounds was presented as a percentage of the control value.
The study of the antiproliferative properties (intensity of [^3H]-thymidine incorporation into cell DNA) of the tested derivatives against tested cell lines (MCF-7, MDA-MB-231, MCF-10A) was performed after 24 h incubation with varied concentrations of the tested compounds in the medium (0.5–5 µM) in 6-well plates (baseline seeding density: 5 × 10^5 cells/well). After 24 h the medium was removed, the cells were washed with PBS (Corning, Kennebunk, ME, USA), and a fresh medium was added. […] Radioactivity was measured using the Scintillation Counter 1900 TR, TRI-CARB (Packard, Perkin Elmer, Inc., San Jose, CA, USA). The intensity of DNA biosynthesis in the analyzed cells was expressed in terms of dpm/well. The result of the radioactivity measurement in the control cells (without the addition of tested compounds) was taken as 100%, while the values of cells incubated with the tested compounds were presented as a percentage of the control value.

[5] = tested on: MDA-MB-231 triple-negative breast cancer cells; test: MTT cytotoxicity test, MDA-MB-231; format: cell-based, human
Method: as §2

[6] = tested on: MCF-7 breast cancer cells; test: MTT cytotoxicity test, MCF-7; format: cell-based, human; conditions: Homo sapiens, MCF7; MCF-7, 24 h incubation; read-out: IC50, cell viability (MTT)
Method: as §2

[7] = tested on: MCF-10A normal human breast epithelial cells; test: DNA biosynthesis assay ([3H]-thymidine incorporation), MCF-10A; format: cell-based; conditions: Homo sapiens, 24 h, read-out: IC50, DNA biosynthesis
Method: as §1

[8] = tested on: human breast cancer cells MCF-7 and MDA-MB-231; design: method as in PMID 36077839; conditions: 3 µM; cited from earlier work

Row | Compound | IC50 [1] | IC50 [2] | IC50 [3] | fold weaker antiproliferative activity than the most active derivatives [4] | fold weaker cytotoxic activity than the most active compounds ([5]; MDA-MB-231, MTT, vs EDAG-8/EDAG-1) | IC50 [6] | IC50 [7] | cells in which the apoptotic process was triggered [8] | IC50 ([5]; Homo sapiens, MDA-MB-231, 24 h incubation, read-out: IC50, cell viability (MTT))
1 | N#CC[Se]C(=O)c1cc(C(=O)[Se]CC#N)cc(C(=O)[Se]CC#N)c1 [EDAG-10, Se,Se,Se-tris-(cyanomethyl) benzene-1,3,5-tris-(carboxyselenoate)] | 1.56 ± 0.08 µM | 4.18 ± 0.29 µM | 1.95 ± 0.11 µM | 2–3 fold | ~4 fold | 2.6 ± 0.03 µM | 1.6 ± 0.05 µM |  | 
2 | CC(=O)C[Se]C(=O)c1ccc(Cl)cc1 [EDA-71] |  |  |  |  |  |  |  | over 50% | 
3 | N#CC[Se]C(=O)c1ccc(C(=O)[Se]CC#N)cc1 [EDAG-7, Se,Se-bis(cyanomethyl) benzene-1,4-bis(carboselenoate)] | 2.04 ± 0.16 µM | 4.64 ± 0.24 µM | 1.81 ± 0.11 µM | 2–3 fold |  | 3.15 ± 0.21 µM | 2.33 ± 0.02 µM |  | > 5 µM
